Test results taken from patent publication US10059694B2, “2-aminopyrimidine compound and pharmaceutical composition and use thereof” (Shanghai Institute of Materia Medica, Chinese Academy of …, priority 2014, dated 2018).

Legend:
[1] = test system: human non-small cell lung cancer NCI-H1975 cell line; test: SRB proliferation assay, NCI-H1975 cells; type: cell-based; conditions: NCI-H1975, SRB, 72 h, read-out: IC50 NCI-H1975
In short: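 NCI-H1975 cells in log phase were allowed to adhere for 24 h, then treated with compound in triplicate for 72 h. Cells were TCA-fixed and SRB-stained, with OD read at 515 nm; IC50 derived from growth inhibition versus DMSO control.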

EGFR^wt = target: T1, EGFR^wt (Homo sapiens, UniProt P00533); test: kinase inhibitory activity test (ELISA), EGFR^WT; type: biochemical; conditions: ATP 5 μM, 1 hour at 37° C.
T1 construct: purchased Millipore
T1 sequence (P00533 25-1210): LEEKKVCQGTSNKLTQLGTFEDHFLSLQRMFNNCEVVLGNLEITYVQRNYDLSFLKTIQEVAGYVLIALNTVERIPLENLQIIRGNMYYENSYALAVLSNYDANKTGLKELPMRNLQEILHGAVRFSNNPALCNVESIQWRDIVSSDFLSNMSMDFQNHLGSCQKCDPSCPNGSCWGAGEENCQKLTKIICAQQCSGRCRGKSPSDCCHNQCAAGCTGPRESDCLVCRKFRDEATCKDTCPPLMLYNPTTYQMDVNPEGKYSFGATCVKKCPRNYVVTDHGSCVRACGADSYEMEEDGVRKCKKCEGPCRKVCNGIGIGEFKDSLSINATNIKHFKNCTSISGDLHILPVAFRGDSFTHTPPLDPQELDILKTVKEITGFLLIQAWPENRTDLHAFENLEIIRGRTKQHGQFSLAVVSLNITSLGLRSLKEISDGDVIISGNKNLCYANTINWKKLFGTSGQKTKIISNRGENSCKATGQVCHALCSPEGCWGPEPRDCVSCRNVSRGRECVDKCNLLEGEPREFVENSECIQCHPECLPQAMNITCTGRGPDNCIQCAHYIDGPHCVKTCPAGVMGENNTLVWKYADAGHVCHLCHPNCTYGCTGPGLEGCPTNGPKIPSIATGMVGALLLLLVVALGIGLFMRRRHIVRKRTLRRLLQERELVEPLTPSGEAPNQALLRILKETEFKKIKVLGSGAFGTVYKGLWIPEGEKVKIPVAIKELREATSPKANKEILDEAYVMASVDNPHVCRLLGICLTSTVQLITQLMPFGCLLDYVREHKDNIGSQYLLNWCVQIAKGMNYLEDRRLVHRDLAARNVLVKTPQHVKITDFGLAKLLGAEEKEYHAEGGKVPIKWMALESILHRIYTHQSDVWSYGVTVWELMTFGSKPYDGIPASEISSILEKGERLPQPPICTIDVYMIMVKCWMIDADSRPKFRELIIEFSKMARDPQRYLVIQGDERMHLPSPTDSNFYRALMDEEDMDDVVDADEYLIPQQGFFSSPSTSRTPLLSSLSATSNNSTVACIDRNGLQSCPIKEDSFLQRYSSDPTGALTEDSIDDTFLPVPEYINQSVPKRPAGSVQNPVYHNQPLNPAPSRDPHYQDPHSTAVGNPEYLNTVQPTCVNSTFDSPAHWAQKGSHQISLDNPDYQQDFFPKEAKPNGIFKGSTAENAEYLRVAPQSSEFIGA
In short: (§1)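 ELISA on poly(Glu,Tyr)4:1-coated plates; kinase reaction with 5 μM ATP (final) in 50 mM HEPES pH 7.4, 50 mM MgCl2, 5 mM MnCl2, 0.2 mM Na3VO4, 1 mM DTT, 1 h at 37° C. Phosphotyrosine detected via PY99/HRP and OPD at 490 nm; IC50 by four-parameter fit.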

IGF-1R = target: T2, IGF-1R (Homo sapiens, UniProt P08069); test: kinase inhibitory activity test (ELISA), IGF-1R; type: biochemical; conditions: ATP 5 μM, 1 hour at 37° C.
T2 construct: purchased Millipore
T2 sequence (P08069 31-1367): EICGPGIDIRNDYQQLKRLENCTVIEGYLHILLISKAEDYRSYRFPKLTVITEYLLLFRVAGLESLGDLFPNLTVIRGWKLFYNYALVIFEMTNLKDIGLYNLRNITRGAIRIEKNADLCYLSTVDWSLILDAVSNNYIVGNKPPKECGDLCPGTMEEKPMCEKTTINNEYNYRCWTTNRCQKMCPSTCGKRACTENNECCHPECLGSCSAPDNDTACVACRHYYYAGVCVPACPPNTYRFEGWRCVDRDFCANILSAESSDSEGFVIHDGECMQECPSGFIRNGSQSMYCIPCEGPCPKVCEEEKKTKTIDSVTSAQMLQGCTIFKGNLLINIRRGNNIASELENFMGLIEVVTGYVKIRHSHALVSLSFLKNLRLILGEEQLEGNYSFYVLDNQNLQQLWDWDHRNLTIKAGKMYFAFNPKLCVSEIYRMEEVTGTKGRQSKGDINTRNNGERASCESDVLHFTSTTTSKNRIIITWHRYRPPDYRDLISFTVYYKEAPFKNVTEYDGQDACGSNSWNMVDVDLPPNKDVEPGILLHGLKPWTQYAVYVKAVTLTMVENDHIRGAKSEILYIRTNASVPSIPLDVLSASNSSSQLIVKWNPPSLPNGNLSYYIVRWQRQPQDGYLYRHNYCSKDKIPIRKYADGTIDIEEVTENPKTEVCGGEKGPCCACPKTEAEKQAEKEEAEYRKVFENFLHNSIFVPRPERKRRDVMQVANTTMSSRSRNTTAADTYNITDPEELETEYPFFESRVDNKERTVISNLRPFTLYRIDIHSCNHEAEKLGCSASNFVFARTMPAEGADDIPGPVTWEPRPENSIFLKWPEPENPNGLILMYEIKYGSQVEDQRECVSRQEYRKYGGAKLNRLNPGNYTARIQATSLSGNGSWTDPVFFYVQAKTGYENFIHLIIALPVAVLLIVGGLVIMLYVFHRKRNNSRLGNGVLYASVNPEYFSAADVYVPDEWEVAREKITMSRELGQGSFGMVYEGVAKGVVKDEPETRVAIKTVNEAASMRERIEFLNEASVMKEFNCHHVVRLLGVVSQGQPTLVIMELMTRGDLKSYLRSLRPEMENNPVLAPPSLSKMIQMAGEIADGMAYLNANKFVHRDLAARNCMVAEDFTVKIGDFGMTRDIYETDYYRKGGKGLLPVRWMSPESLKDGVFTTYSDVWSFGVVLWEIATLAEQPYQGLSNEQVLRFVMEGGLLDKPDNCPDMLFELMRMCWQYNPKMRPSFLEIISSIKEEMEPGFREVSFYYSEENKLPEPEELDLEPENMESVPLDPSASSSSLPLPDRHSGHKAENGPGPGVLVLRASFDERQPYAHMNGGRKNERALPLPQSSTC
In short: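 Poly(Glu,Tyr)4:1-coated plates; kinase reacted 1 h at 37 °C with 5 μM ATP (final) in HEPES pH 7.4 buffer with Mg2+/Mn2+. Phosphotyrosine detected by PY99 and HRP anti-mouse IgG with OPD at 490 nm; IC50 from four-parameter fit.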

[2] = test system: human epidermal carcinoma A431 cell line; test: SRB proliferation assay, A431 cells; type: cell-based; conditions: A-431, SRB, 72 h, read-out: IC50 A431
In short: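 A431 cells in log phase are allowed to adhere for 24 h, then exposed to compound for 72 h in triplicate alongside DMSO controls. Cells are fixed with cold 10% TCA, stained with SRB, dye is solubilised in 10 mM Tris pH 10.5, and OD is read at 515 nm.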

EGFR^T790M/L858R = target: T3, EGFR^T790M/L858R (Homo sapiens, UniProt P00533, L858R/T790M); test: kinase inhibitory activity test (ELISA), EGFR^T790M/L858R; type: biochemical; conditions: for IC50: ELISA, ATP 5 μM, 1 hour at 37° C.; for kinase inhibitory activity (in words): summary of Table 1
T3 construct: purchased Millipore
T3 sequence (P00533 25-1210 T790M/L858R): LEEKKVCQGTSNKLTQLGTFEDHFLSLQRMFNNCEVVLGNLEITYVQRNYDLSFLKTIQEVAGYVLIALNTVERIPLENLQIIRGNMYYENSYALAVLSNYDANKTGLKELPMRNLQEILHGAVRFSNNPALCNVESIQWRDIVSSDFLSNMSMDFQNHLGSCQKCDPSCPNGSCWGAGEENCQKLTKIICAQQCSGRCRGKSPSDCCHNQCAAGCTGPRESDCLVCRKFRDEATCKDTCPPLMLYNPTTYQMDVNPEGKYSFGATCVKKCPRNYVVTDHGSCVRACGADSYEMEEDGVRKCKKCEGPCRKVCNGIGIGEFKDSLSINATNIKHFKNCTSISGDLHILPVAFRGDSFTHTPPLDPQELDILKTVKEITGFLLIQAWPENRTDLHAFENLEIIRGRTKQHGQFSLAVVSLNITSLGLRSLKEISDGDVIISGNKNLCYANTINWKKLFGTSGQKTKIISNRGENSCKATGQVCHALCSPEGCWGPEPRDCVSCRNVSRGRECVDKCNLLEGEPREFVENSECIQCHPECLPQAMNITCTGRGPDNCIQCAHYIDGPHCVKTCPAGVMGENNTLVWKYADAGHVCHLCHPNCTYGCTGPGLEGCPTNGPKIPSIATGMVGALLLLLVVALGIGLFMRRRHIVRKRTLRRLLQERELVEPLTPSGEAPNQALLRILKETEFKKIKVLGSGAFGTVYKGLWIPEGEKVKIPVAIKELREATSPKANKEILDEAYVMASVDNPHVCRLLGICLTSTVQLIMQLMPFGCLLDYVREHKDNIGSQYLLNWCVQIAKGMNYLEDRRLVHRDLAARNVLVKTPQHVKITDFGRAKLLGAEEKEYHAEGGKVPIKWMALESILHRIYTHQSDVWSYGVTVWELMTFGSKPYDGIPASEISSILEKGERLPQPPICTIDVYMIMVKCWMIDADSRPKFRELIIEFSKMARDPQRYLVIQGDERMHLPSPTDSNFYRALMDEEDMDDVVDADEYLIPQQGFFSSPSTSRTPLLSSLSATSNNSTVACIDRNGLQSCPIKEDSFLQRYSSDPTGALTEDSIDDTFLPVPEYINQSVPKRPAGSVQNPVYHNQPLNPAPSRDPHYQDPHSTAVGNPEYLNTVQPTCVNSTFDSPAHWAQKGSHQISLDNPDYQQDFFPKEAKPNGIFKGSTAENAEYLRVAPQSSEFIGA
In short: as §1

SMILES: COc1cc(F)c(NC(=O)/C=C/CN(C)C)cc1Nc1ncc(Br)c(Nc2ccc3ccccc3c2)n1 [CCB145381, (E)-N-((5-((5-bromo-4-((naphthalen-2-yl)amino))pyrimidin-2-yl)amino)-2-fluoro-4-methoxyphenyl)-4-(dimethylamino)-2-butenamide]
- IC50 [1]: 508 nM
- IC50 (EGFR^wt): 3540 nM
- IC50 (IGF-1R): 102 nM
- IC50 [2]: 1790 nM
- IC50 (EGFR^T790M/L858R): 7.5 nM

SMILES: COc1ccc(NC(=O)/C=C/CN(C)C)cc1Nc1ncc(F)c(Nc2ccc3ccccc3c2)n1 [CCB145287, (E)-N-((3-((5-fluoro-4-((naphthalen-2-yl)amino))pyrimidin-2-yl)amino)-4-methoxyphenyl)-4-(dimethylamino)-2-butenamide]
- IC50 [1]: 375 nM
- IC50 (EGFR^wt): 131 nM
- IC50 (IGF-1R): 151 nM
- IC50 [2]: 611 nM
- IC50 (EGFR^T790M/L858R): 32 nM

SMILES: C=CC(=O)Nc1cc(Nc2ncc(Cl)c(Nc3ccc4ccccc4c3)n2)c(OC)cc1N1CCC(N(C)C)CC1 [CCB120121, N-((5-((5 chloro-4-((naphthalen-2-yl)amino))pyrimidin-2-yl)amino)-2-(4-dimethylaminopiperidine)-4-methoxyphenyl)acrylamide]
- IC50 [1]: 4 nM
- IC50 (EGFR^wt): > 100 nM
- IC50 (IGF-1R): 13.7 nM
- IC50 [2]: 324 nM
- IC50 (EGFR^T790M/L858R): 1.3 nM

SMILES: COc1ccc(NC(=O)/C=C/CN2CCCCC2)cc1Nc1ncc(Cl)c(Nc2ccc3ccccc3c2)n1 [CCB120024, (E)-N-((3-((5-chloro-4-((naphthalen-2-yl)amino))pyrimidin-2-yl)amino)-4-methoxyphenyl)-4-(piperidin-1-yl)-2-butenamide]
- IC50 [1]: 319 nM
- IC50 (EGFR^wt): 318 nM
- IC50 (IGF-1R): 35.4 nM
- IC50 [2]: 6930 nM
- IC50 (EGFR^T790M/L858R): 1.9 nM
- kinase inhibitory activity (in words) (EGFR^T790M/L858R): potent

SMILES: COc1ccc(NC(=O)/C=C/CN(C)C)cc1Nc1ncc(C#N)c(Nc2ccc3ccccc3c2)n1 [CCB145293, (E)-N-((3-((5-cyano-4-((naphthalen-2-yl)amino))pyrimidin-2-yl)amino)-4-methoxyphenyl)-4-(dimethylamino)-2-butenamide]
- IC50 [1]: 327 nM
- IC50 (EGFR^wt): 173 nM
- IC50 (IGF-1R): 193 nM
- IC50 [2]: 1300 nM
- IC50 (EGFR^T790M/L858R): 22.6 nM

SMILES: COc1cc(F)c(NC(=O)/C=C/CN(C)C)cc1Nc1ncc(Cl)c(Nc2ccc3ccccc3c2)n1 [CCB145380, (E)-N-((5-((5-chloro-4-((naphthalen-2-yl)amino))pyrimidin-2-yl)amino)-2-fluoro-4-methoxyphenyl)-4-(dimethylamino)-2-butenamide]
- IC50 [1]: 429 nM
- IC50 (EGFR^wt): 1060 nM
- IC50 (IGF-1R): 195 nM
- IC50 [2]: 1670 nM
- IC50 (EGFR^T790M/L858R): 6.7 nM

SMILES: Cc1cc(NC(=O)/C=C/CN(C)C)cc(Nc2ncc(Cl)c(Nc3ccc4ccccc4c3)n2)c1 [CCB145344, (E)-N-((3-((5-chloro-4-((naphthalen-2-yl)amino))pyrimidin-2-yl)amino)-5-methylphenyl)-4-(dimethylamino)-2-butenamide]
- IC50 [1]: 925 nM
- IC50 (EGFR^wt): 613 nM
- IC50 (IGF-1R): 36 nM
- IC50 [2]: 775 nM
- IC50 (EGFR^T790M/L858R): 46.3 nM

SMILES: C=CC(=O)Nc1cc(Nc2ncc(Cl)c(Nc3ccc4ccccc4c3)n2)c(OC)cc1N1CCCN(C)CC1 [CCB120120, N-((5-((5-chloro-4-((naphthalen-2-yl)amino))pyrimidin-2-yl)amino)-2-(4-methylhomopiperazinyl)-4-methoxyphenyl)acrylamide]
- IC50 [1]: 1 to 16 nM
- IC50 (EGFR^wt): 31.7 nM
- IC50 (IGF-1R): 18.3 nM
- IC50 [2]: 260 nM
- IC50 (EGFR^T790M/L858R): 0.6 nM
- kinase inhibitory activity (in words) (EGFR^T790M/L858R): potent

SMILES: CCOc1ccc(NC(=O)/C=C/CN(C)C)cc1Nc1ncc(Br)c(Nc2ccc3ccccc3c2)n1 [CCB145374, (E)-N-((3-((5-bromo-4-((naphthalen-2-yl)amino))pyrimidin-2-yl)amino)-4-ethoxyphenyl)-4-(dimethylamino)-2-butenamide]
- IC50 [1]: 2820 nM
- IC50 (EGFR^wt): 2830 nM
- IC50 (IGF-1R): 86.4 nM
- IC50 [2]: 4470 nM
- IC50 (EGFR^T790M/L858R): 11.3 nM
